Laboratory results as given in US20110039857A1, “PIPERIDINE AND PYROOLIDINE COMPOUNDS” (priority 2008, published 2011).

How the values were obtained:
[1] = molecular target: T1, human orexin-2 receptor (Homo sapiens, UniProt O43614); assay: Intracellular calcium measurements (FLIPR), orexin receptor antagonistic activity; type: cell-based; settings: CHO cells expressing human orexin-2 receptor; agonist 3 nM orexin-A; read-out: OX2 IC50
T1 construct: expressed in transfected cells; host or cells: CHO (Chinese hamster ovary) cells under G418 selection
T1 sequence (O43614 1-444): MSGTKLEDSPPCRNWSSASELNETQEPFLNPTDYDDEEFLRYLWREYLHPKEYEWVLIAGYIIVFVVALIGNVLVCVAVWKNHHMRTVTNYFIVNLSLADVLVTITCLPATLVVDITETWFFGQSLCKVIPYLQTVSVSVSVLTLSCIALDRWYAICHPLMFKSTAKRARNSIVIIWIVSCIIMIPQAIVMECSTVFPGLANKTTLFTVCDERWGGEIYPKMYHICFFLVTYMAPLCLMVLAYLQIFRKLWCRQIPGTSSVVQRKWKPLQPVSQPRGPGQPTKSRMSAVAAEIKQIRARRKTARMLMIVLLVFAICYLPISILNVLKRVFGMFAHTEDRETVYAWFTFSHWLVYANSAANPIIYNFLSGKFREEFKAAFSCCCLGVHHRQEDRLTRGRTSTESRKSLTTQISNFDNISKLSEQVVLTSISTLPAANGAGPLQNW
Procedure: (§1) The orexin receptor antagonistic activity of the compounds of formula (I) is determined in accordance with the following experimental method.
(§2) Intracellular Calcium Measurements:
(§3) Chinese hamster ovary (CHO) cells expressing the human orexin-1 receptor and the human orexin-2 receptor, respectively, are grown in culture medium (Ham F-12 with L-Glutamine) containing 300 μg/ml G418, 100 U/ml penicillin, 100 μg/ml streptomycin and 10% heat inactivated fetal calf serum (FCS). The cells are seeded at 20′000 cells/well into 384-well black clear bottom sterile plates (Greiner). The seeded plates are incubated overnight at 37° C. in 5% CO2.
(§4) Human orexin-A as an agonist is prepared as 1 mM stock solution in MeOH: water (1:1), diluted in HBSS containing 0.1% bovine serum albumin (BSA), NaHCO3: 0.375g/l and 20 mM HEPES for use in the assay at a final concentration of 3 nM.
(§5) Antagonists are prepared as 10 mM stock solution in DMSO, then diluted in 384-well plates using DMSO followed by a transfer of the dilutions into in HBSS containing 0.1% bovine serum albumin (BSA), NaHCO3: 0.375g/l and 20 mM HEPES. On the day of the assay, 50 μl of staining buffer (HBSS containing 1% FCS, 20 mM HEPES, NaHCO3: 0.375g/l, 5 mM probenecid (Sigma) and 3 μM of the fluorescent calcium indicator fluo-4 AM (1 mM stock solution in DMSO, containing 10% pluronic) is added to each well. The 384-well cell-plates are incubated for 50 min at 37° C. in 5% CO2 followed by equilibration at RT for 30-120 min before measurement.
(§6) Within the Fluorescent Imaging Plate Reader (FLIPR, Molecular Devices), antagonists are added to the plate in a volume of 10 μl/well, incubated for 10 min and finally 10 μl/well of agonist is added. Fluorescence is measured for each well at 1 second intervals, and the height of each fluorescence peak is compared to the height of the fluorescence peak induced by 3 nM orexin-A with vehicle in place of antagonist. For each antagonist, the IC50 value (the concentration of compound needed to inhibit 50% of the agonistic response) is determined.

[2] = molecular target: T2, human orexin-1 receptor (Homo sapiens, UniProt O43613); assay: as above; type: cell-based; settings: CHO cells expressing human orexin-1 receptor; agonist 3 nM orexin-A; read-out: OX1 IC50
T2 construct: expressed in transfected cells; host or cells: CHO (Chinese hamster ovary) cells under G418 selection
T2 sequence (O43613 1-425): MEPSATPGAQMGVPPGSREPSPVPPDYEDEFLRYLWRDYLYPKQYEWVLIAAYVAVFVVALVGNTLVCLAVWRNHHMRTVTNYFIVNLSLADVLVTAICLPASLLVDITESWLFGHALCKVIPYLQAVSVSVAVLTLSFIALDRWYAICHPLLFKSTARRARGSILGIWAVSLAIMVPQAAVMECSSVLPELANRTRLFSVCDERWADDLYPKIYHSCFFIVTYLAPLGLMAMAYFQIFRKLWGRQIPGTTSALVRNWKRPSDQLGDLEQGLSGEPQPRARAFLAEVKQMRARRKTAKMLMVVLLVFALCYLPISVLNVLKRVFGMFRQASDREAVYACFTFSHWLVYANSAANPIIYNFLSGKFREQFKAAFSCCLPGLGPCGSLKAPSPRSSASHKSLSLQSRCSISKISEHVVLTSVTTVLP
Procedure: as §1, §2, §3, §4, §5, §6

Row | Structure (SMILES) | IC50 [1] | IC50 [2]
1 | Cc1ccc(-c2ccccc2C(=O)N2CCC[C@@H](Nc3cnc4ccccc4n3)C2)cc1C [Example 6, (R)-(3′,4′-Dimethyl-biphenyl-2-yl)-[3-(quinoxalin-2-ylamino)-piperidin-1-yl]-methanone] | 0.011 µM | 0.013 µM
2 | Cc1ccc(-c2ccccc2C(=O)N2CCC[C@@H](NC(=O)c3cn(C)c4ccccc34)C2)cc1C [Example 41, (R)-1-Methyl-1H-indole-3-carboxylic acid[1-(3′,4′-dimethyl-biphenyl-2-carbonyl)-piperidin-3-yl]-amide] | 0.025 µM | 0.032 µM
3 | COc1cc(OC)nc(N[C@@H]2CCCN(C(=O)c3ccccc3-c3ccc(C)c(C)c3)C2)n1 [Example 2, (R)-[3-(4,6-Dimethoxy-pyrimidin-2-ylamino)-piperidin-1-yl]-(3′,4′-dimethyl-biphenyl-2-yl)-methanone] | 0.01 µM | 0.025 µM

Continued, values first:

Row | IC50 [1] | IC50 [2] | Structure (SMILES)
4 | 0.043 µM | 0.058 µM | Cc1ccc(-c2ccccc2C(=O)N2CCC[C@@H](Nc3nccc(C(F)(F)F)n3)C2)cc1C [Example 1, (R)-(3′,4′-Dimethyl-biphenyl-2-yl)-[3-(4-trifluoromethyl-pyrimidin-2-ylamino)-piperidin-1-yl]-methanone]
5 | 0.015 µM | 0.033 µM | Cc1cccc(-c2ccccc2C(=O)N2CCC[C@@H](NC(=O)c3nn(C)c4ccccc34)C2)c1 [Example 34, (R)-1-Methyl-1H-indazole-3-carboxylic acid[1-(3′-methyl-biphenyl-2-carbonyl)-piperidin-3-yl]-amide]
